US20200375965A1, “Targeting Lipid Metabolism and Free Fatty Acid (FFA) Oxidation to Treat Diseases Mediated by Resident Memory T Cells (TRM)” (The Brigham and Women's Hospital, Inc., priority 2018, published 2020)

Columns and labels:
VACV = test system: VACV; parameters: species or system mice; conditions: mouse, in vivo
WR-VACV = test system: WR-VACV; parameters: species or system mice; conditions: mouse, in vivo
[1] = test system: TRM mediated contact hypersensitivity (CHS); assay: DNFB contact hypersensitivity (CHS), ear thickness; type: in vivo, C57BL/6 mice; conditions: etomoxir 1 ug/site, trimetazidine 10 ug/site at challenge with 0.25% DNFB
Experimental: FIG. 15. […] Effect of FAO inhibition on contact hypersensitivity (CHS) reaction post DNFB re-exposure. DNFB: 20 ul, 0.25% in acetone:olive oil (aOO) (3:1 v/v); Etomoxir (1 ug/site); Trimetazidine (10 ug/site). N=10 mice per group.
C57BL/6 mice were sensitized by topical applications of 20 μl of 0.25% DNFB diluted in acetone olive oil (3:1 v/v) at the indicated time points (day 0, 1 and 7). Challenge was performed at the infection site with 20 μl of DNFB-acetone olive oil (aOO) (0.25%), with or without etomoxir (1 ug/site) and trimetazidine (10 ug/site), at the indicated time points. Then the ear thickness of the mice was measured with a digital thickness gauge (Mitsutoyo) for the following days.

[2] = test system: OT-I TRM, TCM and Fabp4/5 dKO TRM; assay: Seahorse Fatty Acid Oxidation (FAO) assay, oxygen-consumption rate; type: cell-based, mouse
Experimental: Oxidation of exogenous free fatty acids (FFA) was measured using XF Palmitate-BSA FAO substrate with XF cell mito stress kit according to the manufacturer's protocol (Seahorse Bioscience). Freshly isolated and sorted T cells (2.5×10^5) were incubated for 30 min with FAO assay medium (111 mM NaCl, 4.7 mM KCl, 1.25 mM CaCl2), 2.0 mM MgSO4, 1.2 mM Na2HPO4, 2.5 mM glucose, 0.5 mM carnitine and 5 mM HEPES). When required, cells were pre-treated with etomoxir (40 μM) for 15 min. Afterwards, BSA (34 μM) or palmitate-BSA (200 μM palmitate conjugated with 34 μM BSA) was added to the medium, and the oxygen-consumption rate (OCR) was measured under basal conditions and in response to 1 uM oligomycin, 1.5 uM fluorocarbonyl cyanide phenylhydrazone (FCCP), and 100 nM rotenone+1 uM antimycin A. Results were normalized to those of control cells in the presence of BSA.

OT-1 skin TRM = assay: Bodipy FL C16 (Bodipy conjugated palmitate) uptake ex vivo, flow cytometry; type: cell-based, mouse; conditions: pre-incubation with unlabeled palmitate (100 μM palmitic acid, 10 min, 37° C.); day 30 TRM
Text: The following anti-mouse antibodies were obtained from BD PharMingen: PerCP-conjugated anti-CD3e (553067), PE-conjugated anti-CD8 (557654), PE-Cy7-conjugated anti-CD8 (552877), APC-Cy7-conjugated anti-CD8 (557654), PE-conjugated anti-Thy1.1 (561404), APC-conjugated anti-Thy1.1 (557266), Alexa Fluor 488-conjugated anti-KLRG1 (561619), PE-conjugated anti-integrin α4β7 (553811), PE-Cy7-conjugated anti-CD62L (560516), APC-Cy7-conjugated CD62L (560514), APC-conjugated anti-IFN-γ (554413). Biolegend: Alexa Fluor 488-conjugated anti-CD3e (100321), Alexa Fluor 647-conjugated anti-CD4 (100424), Alexa Fluor 594-conjugated anti-Ep-CAM (118222), FITC-conjugated anti-CD45.1 (110706), PE-conjugated anti-CD45.1 (110708), PE-Cy7-conjugated anti-CD45.2 (109830), APC-conjugated anti-CD45.2 (109814), PE-conjugated anti-CD45.2 (109808), APC-conjugated anti-KLRG1 (138412), PE-conjugated anti-CD44 (103008), PE-Cy7-conjugated anti-CD44 (103030), PE-Cy7-conjugated anti-CD69 (104512), APC-conjugated anti-CD103 (121414), APC-conjugated anti-integrin α4β7 (120608). […] Apoptosis was measured with FITC Annexin V Apoptosis Detection Kit (640922; Biolegend) according to manufacturer's protocol. Flow cytometry data were acquired with a FACS Canto II flow cytometer (BD Biosciences) and data were analyzed with Flowjo software (Tree Star). […]

Compound: CCCCCCCCc1ccc(CCC(N)(CO)CO)cc1 [FTY720]
- clearing of virus from skin by established OT-I WT TRM (VACV; ip, 1 mg/kg): unaffected
- reduced viral clearance by OT-I TRM lacking Fabp4 and Fabp5 (VACV; ip, 1 mg/kg): exaggerated
- mortality (WR-VACV): 100%
- protection from lethality (WR-VACV): partially but significantly protected

Compound: CCOC(=O)C1(CCCCCCOc2ccc(Cl)cc2)CO1 (stereo not shown) [etomoxir, 2-(6-(4-chlorophenoxy)-hexyl)-oxirane-2-carboxylic acid ethyl ester]
- contact hypersensitivity (CHS) reaction post DNFB re-exposure [1]: Block
- VACV clearing capacity of OT-I WT TRM (VACV): reduced
- enhanced basal and FCCP-stimulated maximal oxygen-consumption rate (OCR) induced by extracellular fatty acids ([2]; OT-I TRM, pre-treatment with etomoxir 40 μM for 15 min): blocked
- cellular respiration (OCR) ([2]; TCM or Fabp4/5 dKO TRM OT-I cells, addition of etomoxir): no effect

Compound: COc1ccc(CN2CCNCC2)c(OC)c1OC [trimetazidine]
- contact hypersensitivity (CHS) reaction post DNFB re-exposure [1]: Block

Compound: CCCCCCCCCCCCCCCC(=O)O [unlabeled palmitate, palmitic acid]
- uptake of extracellular Bodipy conjugated palmitate (OT-1 skin TRM): blocked
